From ChEMBL document CHEMBL5038675, “Selective A3 Adenosine Receptor Antagonist Radioligand for Human and Rodent Species” (ACS Med Chem Lett, 2022)

What was measured:
[1] = Half life in Sprague-Dawley rat brain at 1 mg/kg, iv measured after 8 hrs by LC-MS/MS analysis; assay type: ADME, organism-based
Adenosine receptor A2b [2] = molecular target: Adenosine receptor A2b (Rattus norvegicus, UniProt P29276); experiment: Displacement of [3H] DPCPX from rat adenosine A2B receptor expressed in HEK293 cells incubated for 60 mins by radioligand binding assay; assay type: cell-based
Sequence of Adenosine receptor A2b (Rattus norvegicus, UniProt P29276) (P29276 whole entry): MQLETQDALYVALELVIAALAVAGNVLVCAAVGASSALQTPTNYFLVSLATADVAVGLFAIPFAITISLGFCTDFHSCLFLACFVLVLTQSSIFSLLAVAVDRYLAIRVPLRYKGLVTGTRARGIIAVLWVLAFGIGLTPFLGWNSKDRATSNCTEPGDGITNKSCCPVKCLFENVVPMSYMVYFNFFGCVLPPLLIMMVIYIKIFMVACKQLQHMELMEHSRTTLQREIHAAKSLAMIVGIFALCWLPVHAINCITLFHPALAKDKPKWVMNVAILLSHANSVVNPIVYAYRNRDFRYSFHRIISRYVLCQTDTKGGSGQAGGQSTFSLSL

[3] = Lipophilicity, logP of compound; assay type: physicochemical; conditions: octanol/water
Adenosine receptor A1 [4] = molecular target: T1, Adenosine receptor A1 (Mus musculus, UniProt Q60612); experiment: Displacement of [3H] DPCPX from mouse adenosine A1 receptor expressed in HEK293 cells incubated for 60 mins by radioligand binding assay; assay type: cell-based
T1 sequence (Q60612 whole entry): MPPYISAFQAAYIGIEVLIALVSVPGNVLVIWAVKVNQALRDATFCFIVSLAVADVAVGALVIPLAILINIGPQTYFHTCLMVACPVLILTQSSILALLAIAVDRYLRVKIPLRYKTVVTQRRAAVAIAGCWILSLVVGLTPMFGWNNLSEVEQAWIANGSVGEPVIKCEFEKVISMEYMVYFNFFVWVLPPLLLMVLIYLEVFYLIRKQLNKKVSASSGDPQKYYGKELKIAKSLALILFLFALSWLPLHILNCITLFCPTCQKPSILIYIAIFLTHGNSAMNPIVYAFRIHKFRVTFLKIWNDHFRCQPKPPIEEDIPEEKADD

Adenosine receptor A2a [5] = molecular target: Adenosine receptor A2a (Rattus norvegicus, UniProt P30543); experiment: Displacement of [3H] ZM241385 from rat adenosine A2A receptor expressed in HEK293 cells incubated for 60 mins by radioligand binding assay; assay type: cell-based
Sequence of Adenosine receptor A2a (Rattus norvegicus, UniProt P30543) (P30543 whole entry): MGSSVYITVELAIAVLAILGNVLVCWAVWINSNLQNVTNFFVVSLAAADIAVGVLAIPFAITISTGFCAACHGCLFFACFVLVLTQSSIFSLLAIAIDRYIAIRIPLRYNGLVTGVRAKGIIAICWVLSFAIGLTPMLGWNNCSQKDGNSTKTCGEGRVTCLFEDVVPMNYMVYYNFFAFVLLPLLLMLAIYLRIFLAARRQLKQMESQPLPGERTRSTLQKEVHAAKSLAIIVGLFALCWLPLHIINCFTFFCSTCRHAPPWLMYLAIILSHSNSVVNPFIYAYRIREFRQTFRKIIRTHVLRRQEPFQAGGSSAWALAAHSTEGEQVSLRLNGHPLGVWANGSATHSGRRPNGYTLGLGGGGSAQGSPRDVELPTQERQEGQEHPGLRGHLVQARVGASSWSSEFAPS

Adenosine receptor A1 [6] = molecular target: Adenosine receptor A1 (Rattus norvegicus, UniProt P25099); experiment: Displacement of [3H] DPCPX from rat adenosine A1 receptor expressed in HEK293 cells incubated for 60 mins by radioligand binding assay; assay type: cell-based
Sequence of Adenosine receptor A1 (Rattus norvegicus, UniProt P25099) (P25099 whole entry): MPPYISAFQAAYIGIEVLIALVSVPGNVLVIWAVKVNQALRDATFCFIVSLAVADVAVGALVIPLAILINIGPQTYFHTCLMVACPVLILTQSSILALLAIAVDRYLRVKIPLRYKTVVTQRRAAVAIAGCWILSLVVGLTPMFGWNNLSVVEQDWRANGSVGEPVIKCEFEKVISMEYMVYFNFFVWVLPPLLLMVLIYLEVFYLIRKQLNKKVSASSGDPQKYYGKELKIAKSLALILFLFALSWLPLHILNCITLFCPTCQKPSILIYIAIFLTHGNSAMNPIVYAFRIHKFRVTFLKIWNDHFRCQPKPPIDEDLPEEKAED

[7] = Fraction unbound in Sprague-Dawley rat plasma assessed as unbound fraction at 1 mg/kg, iv measured after 8 hrs by LC-MS/MS analysis; assay type: ADME, organism-based
[8] = Clearance in Sprague-Dawley rat plasma at 1 mg/kg, iv measured after 8 hrs by LC-MS/MS analysis; assay type: ADME, organism-based
[9] = Fraction unbound in Sprague-Dawley rat brain assessed as unbound fraction at 1 mg/kg, iv measured after 8 hrs by LC-MS/MS analysis; assay type: ADME, organism-based
Adenosine receptor A1 [10] = molecular target: T2, Adenosine receptor A1 (Homo sapiens, UniProt P30542); experiment: Displacement of [3H] DPCPX from human adenosine A1 receptor expressed in HEK293 cells incubated for 60 mins by radioligand binding assay; assay type: cell-based
T2 sequence (P30542 whole entry): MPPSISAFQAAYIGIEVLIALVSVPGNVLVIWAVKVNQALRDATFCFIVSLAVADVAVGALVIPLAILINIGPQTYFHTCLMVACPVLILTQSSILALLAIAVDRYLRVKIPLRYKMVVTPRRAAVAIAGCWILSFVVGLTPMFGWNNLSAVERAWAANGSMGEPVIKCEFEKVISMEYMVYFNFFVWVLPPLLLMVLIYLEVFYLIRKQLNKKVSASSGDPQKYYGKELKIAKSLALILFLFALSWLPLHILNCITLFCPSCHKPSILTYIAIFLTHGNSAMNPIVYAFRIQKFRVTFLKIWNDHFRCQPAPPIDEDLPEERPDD

[11] = molecular target: 5-hydroxytryptamine receptor 2A (Homo sapiens, UniProt P28223); experiment: Binding affinity to human 5-HT2A receptor by radioligand binding assay
Sequence of 5-hydroxytryptamine receptor 2A (P28223 whole entry): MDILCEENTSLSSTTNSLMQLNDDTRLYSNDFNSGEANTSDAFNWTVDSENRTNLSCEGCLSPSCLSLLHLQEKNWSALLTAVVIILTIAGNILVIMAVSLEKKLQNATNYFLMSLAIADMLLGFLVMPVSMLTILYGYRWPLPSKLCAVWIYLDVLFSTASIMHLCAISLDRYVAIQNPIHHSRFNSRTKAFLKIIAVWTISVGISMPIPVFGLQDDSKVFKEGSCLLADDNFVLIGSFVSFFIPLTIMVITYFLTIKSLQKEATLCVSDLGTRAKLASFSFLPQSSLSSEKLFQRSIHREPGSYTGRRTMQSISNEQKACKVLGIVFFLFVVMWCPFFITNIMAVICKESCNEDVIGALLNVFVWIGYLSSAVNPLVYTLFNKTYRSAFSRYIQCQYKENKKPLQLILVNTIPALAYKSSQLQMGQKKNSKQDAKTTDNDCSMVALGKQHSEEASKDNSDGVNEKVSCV

Adenosine receptor A3 [12] = molecular target: T3, Adenosine receptor A3 (Mus musculus, UniProt Q61618); assay type: cell-based, HEK293
T3 sequence (Q61618 whole entry): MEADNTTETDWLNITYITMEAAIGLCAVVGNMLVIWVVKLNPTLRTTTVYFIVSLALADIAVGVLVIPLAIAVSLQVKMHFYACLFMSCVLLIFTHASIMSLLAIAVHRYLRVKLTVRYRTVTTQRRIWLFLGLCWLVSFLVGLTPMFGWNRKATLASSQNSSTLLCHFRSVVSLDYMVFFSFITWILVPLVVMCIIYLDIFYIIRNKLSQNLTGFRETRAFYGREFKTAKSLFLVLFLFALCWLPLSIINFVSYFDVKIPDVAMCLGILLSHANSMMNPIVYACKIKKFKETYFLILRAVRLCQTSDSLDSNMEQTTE

Adenosine receptor A2b [13] = molecular target: Adenosine receptor A2b (Homo sapiens, UniProt P29275); experiment: Displacement of [3H] DPCPX from human adenosine A2B receptor expressed in HEK293 cells incubated for 60 mins by radioligand binding assay; assay type: cell-based
Sequence of Adenosine receptor A2b (Homo sapiens, UniProt P29275) (P29275 whole entry): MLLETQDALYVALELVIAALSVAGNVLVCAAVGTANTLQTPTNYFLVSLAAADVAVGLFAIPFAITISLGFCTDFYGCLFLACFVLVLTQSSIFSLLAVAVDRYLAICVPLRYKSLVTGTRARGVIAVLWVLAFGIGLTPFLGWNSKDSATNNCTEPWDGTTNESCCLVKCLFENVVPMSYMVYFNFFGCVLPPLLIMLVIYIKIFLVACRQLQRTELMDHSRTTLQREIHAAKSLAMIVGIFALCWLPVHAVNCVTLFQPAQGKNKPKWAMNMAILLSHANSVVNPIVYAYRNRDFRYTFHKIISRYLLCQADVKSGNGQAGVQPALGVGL

[14] = Half life in Sprague-Dawley rat plasma at 1 mg/kg, iv measured after 8 hrs by LC-MS/MS analysis; assay type: ADME, organism-based
[15] = Volume of distribution in Sprague-Dawley rat brain at 1 mg/kg, iv measured after 8 hrs by LC-MS/MS analysis; assay type: ADME, organism-based
[16] = C0 in Sprague-Dawley rat brain at 1 mg/kg, iv measured after 8 hrs by LC-MS/MS analysis; assay type: ADME, organism-based
Adenosine receptor A2a [17] = molecular target: Adenosine receptor A2a (Homo sapiens, UniProt P29274); experiment: Displacement of [3H] ZM241385 from human adenosine A2A receptor expressed in HEK293 cells incubated for 60 mins by radioligand binding assay; assay type: cell-based
Sequence of Adenosine receptor A2a (Homo sapiens, UniProt P29274) (P29274 whole entry): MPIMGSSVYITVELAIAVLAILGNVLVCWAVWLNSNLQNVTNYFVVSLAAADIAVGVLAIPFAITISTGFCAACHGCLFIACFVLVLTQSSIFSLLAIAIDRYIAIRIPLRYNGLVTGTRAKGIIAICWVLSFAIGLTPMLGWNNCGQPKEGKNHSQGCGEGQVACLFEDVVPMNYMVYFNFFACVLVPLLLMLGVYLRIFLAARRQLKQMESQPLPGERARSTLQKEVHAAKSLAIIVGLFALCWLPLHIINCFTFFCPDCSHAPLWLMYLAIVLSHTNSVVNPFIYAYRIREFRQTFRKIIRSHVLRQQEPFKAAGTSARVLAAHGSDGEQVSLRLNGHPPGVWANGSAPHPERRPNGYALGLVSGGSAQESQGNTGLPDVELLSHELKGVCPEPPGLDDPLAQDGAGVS

[18] = molecular target: 5-hydroxytryptamine receptor 2C (Homo sapiens, UniProt P28335); experiment: Binding affinity to human 5-HT2C receptor by radioligand binding assay
Sequence of 5-hydroxytryptamine receptor 2C (P28335 whole entry): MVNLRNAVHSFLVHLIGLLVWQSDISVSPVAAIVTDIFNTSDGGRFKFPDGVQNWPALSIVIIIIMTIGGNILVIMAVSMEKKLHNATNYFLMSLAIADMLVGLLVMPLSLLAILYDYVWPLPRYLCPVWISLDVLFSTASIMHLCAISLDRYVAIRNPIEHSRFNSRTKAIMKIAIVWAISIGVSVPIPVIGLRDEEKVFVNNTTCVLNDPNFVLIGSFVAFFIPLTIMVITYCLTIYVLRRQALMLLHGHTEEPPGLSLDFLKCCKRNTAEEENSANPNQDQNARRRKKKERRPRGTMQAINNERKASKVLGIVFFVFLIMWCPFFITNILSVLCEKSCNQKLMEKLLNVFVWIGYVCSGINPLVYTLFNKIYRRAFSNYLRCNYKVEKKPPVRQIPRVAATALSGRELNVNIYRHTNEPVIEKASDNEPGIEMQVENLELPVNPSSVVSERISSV

[19] = C0 in Sprague-Dawley rat plasma at 1 mg/kg, iv measured after 8 hrs by LC-MS/MS analysis; assay type: ADME, organism-based
Adenosine receptor A3 [20] = molecular target: T4, Adenosine receptor A3 (Rattus norvegicus, UniProt P28647); assay type: cell-based, HEK293
T4 sequence (P28647 whole entry): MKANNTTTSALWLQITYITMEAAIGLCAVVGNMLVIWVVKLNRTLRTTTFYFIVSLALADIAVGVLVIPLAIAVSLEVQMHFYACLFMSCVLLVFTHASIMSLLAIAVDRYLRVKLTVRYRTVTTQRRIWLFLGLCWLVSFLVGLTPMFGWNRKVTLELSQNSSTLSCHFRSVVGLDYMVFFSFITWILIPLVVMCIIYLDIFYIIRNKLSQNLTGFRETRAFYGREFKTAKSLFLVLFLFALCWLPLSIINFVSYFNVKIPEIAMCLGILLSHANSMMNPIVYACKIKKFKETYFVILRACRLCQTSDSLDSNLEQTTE

[21] = Drug concentration in Sprague-Dawley rat brain concentration assessed as average concentration at 1 mg/kg, iv measured after 8 hrs by LC-MS/MS analysis; assay type: ADME, organism-based; conditions: in vivo
[22] = Drug concentration in Sprague-Dawley rat plasma assessed as average concentration at 1 mg/kg, iv measured after 8 hrs by LC-MS/MS analysis; assay type: ADME, organism-based; conditions: in vivo
[23] = Volume of distribution in Sprague-Dawley rat plasma at 1 mg/kg, iv measured after 8 hrs by LC-MS/MS analysis; assay type: ADME, organism-based
Adenosine receptor A2b [24] = molecular target: Adenosine receptor A2b (Mus musculus, UniProt Q60614); experiment: Displacement of [3H] DPCPX from mouse adenosine A2B receptor expressed in HEK293 cells incubated for 60 mins by radioligand binding assay; assay type: cell-based
Sequence of Adenosine receptor A2b (Mus musculus, UniProt Q60614) (Q60614 whole entry): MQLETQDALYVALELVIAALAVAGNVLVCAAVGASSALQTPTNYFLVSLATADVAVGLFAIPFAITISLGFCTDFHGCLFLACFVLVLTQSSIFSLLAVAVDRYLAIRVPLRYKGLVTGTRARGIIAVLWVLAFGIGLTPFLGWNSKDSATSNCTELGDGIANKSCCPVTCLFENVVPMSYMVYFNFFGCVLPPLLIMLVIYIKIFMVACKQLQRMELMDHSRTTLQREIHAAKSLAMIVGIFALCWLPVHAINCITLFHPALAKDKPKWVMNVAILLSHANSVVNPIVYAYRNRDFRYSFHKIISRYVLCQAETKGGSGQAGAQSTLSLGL

Adenosine receptor A2a [25] = molecular target: Adenosine receptor A2a (Mus musculus, UniProt Q60613); experiment: Displacement of [3H] ZM241385 from mouse adenosine A2A receptor expressed in HEK293 cells incubated for 60 mins by radioligand binding assay; assay type: cell-based
Sequence of Adenosine receptor A2a (Mus musculus, UniProt Q60613) (Q60613 whole entry): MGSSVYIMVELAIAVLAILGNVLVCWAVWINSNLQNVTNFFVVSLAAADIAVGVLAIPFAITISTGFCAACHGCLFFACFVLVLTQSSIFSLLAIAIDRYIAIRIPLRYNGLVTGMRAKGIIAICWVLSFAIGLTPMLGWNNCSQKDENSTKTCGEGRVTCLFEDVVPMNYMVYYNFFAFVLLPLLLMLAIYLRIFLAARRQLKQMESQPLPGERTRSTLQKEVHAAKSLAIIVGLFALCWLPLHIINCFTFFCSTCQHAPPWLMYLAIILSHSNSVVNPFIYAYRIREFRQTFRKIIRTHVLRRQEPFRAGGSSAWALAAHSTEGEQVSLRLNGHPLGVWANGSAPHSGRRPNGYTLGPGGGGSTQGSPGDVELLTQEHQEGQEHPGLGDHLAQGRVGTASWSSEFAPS

[26] = molecular target: Muscarinic acetylcholine receptor M5 (Homo sapiens, UniProt P08912); experiment: Binding affinity to human M5 receptor by radioligand binding assay
Sequence of Muscarinic acetylcholine receptor M5 (P08912 whole entry): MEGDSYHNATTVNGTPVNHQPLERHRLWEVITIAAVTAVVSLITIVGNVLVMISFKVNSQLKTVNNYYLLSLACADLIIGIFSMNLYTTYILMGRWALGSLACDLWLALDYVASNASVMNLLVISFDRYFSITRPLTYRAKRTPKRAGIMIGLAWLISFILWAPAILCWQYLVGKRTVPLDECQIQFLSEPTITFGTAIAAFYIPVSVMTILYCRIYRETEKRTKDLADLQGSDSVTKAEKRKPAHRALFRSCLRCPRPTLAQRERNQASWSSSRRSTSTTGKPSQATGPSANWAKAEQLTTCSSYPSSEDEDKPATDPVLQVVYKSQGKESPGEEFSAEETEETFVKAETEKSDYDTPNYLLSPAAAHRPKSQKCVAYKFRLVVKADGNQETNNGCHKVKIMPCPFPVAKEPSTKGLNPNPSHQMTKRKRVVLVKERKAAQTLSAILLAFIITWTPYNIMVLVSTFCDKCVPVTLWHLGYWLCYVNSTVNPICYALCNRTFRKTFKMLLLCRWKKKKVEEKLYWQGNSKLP

Cc1cc(C)cc(-c2nc(NC(=O)c3cccnc3)sc2-c2ccncc2)c1
half-life [1]: 42 min
Ki (Adenosine receptor A2b [2]): 163 nM
logP [3]: 4.68
Ki (Adenosine receptor A1 [4]): 411 nM
Ki (Adenosine receptor A2a [5]): 1150 nM
Ki (Adenosine receptor A1 [6]): 333 nM
fraction unbound at 8 h [7]: 0.03
clearance [8]: 40 mL/min/kg
fraction unbound at 8 h [9]: 0.03
Ki (Adenosine receptor A1 [10]): 162 nM
Ki [11]: 960 nM
Ki (Adenosine receptor A3 [12]): 9.61 nM
Ki (Adenosine receptor A2b [13]): 230 nM
half-life [14]: 48 min
Vd [15]: 1.9 L/kg
C0 at 8 h [16]: 760 ng/mL
Ki (Adenosine receptor A2a [17]): 121 nM
Ki [18]: 790 nM
C0 at 8 h [19]: 628 ng/mL
Ki (Adenosine receptor A3 [20]): 8.53 nM
Cave [21]: 95 ng/mL
Cave [22]: 52 ng/mL
Vd [23]: 1.8 L/kg
Ki (Adenosine receptor A2b [24]): 189 nM
Ki (Adenosine receptor A2a [25]): 830 nM
Ki [26]: 3700 nM
